# Data from patent publication US20160106813A1 (CENTRE NATIONAL DE LA RECHERCHE SCHIENTIFIQUE (CNRS), priority 2013, published 2016).
# Ends that are not written are not given here.
# Assays:
# HIV-1 JRCSF = assay: HIV-1 transfer from monocyte-derived Langerhans cells (MDLC) to CD4+ T-cells, p24 ELISA of co-culture supernatants; type: cell-based
# Procedure: Peripheral blood mononuclear cells (PBMCs) from healthy donors were separated from whole blood by a standard Ficoll gradient. CD14+ monocytes and CD4+ TCs were obtained from PBMCs by negative magnetic selection (Stemcell Technologies, Grenoble, France) according to the manufacturer's instructions. MDLC were prepared and maintained as described (Masterson et al., Blood 100:701-703; Geissmann et al., J Exp Med 187:961-966.)
# CCL3/MIP-1α = CCL3/MIP-1α levels in LC-TC co-culture supernatants, multiplex assay and flow cytometry; type: cell-based, human; details: highest concentration of BAY117082, n=4
# HIV-1 = details: agent added during co-culture; dose-dependent
# Procedure: Normal goat IgG, neutralizing CCL3/MIP-1α goat Ab (R&D systems, Minneapolis, Minn., USA), or the NFκB inhibitor BAY117082 (Santa Cruz Biotechnology, Santa Cruz, Calif., USA), were included during the co-culture period (MDLC-TC) described previously. HIV-1 replication was measured in the co-culture supernatants a week later by p24 ELISA (Innotest; Innogenetics, Gent, Belgium).
compound,measurement,setting,value
Ala-Cys-Asn-Thr-Ala-Thr-Cys-Val-Thr-His-Arg-Leu-Ala-Gly-Leu-Leu-Ser-Arg-Ser-Gly-Gly-Met-Val-Lys-Ser-Asn-Phe-Val-Pro-Thr-Asn-Val-Gly-Ser-Lys-Ala-Phe-NH2 (ACNTATCVTHRLAGLLSRSGGMVKSNFVPTNVGSKAF-NH2; ends and bridges not checked) [beta CGRP],HIV-1 transfer from Langerhans cells to TCs (in words),"HIV-1 JRCSF; MDLCs pretreated with the peptide, pulsed with HIV-1 JRCSF (R5), co-cultured a week with CD4+ TCs",inhibit HIV-1 transfer
"CGRP8-37: truncated CGRP receptor antagonist (VTHRLAGLLSRSGGVVKNNFVPTNVGSKAF; ends and bridges not checked; UniProt P06881 90-119, looked up, fragment)",effect on the inhibitory effect of CGRP on HIV-1 transfer,HIV-1 JRCSF; 1000 nM CGRP8-37 added 10 min before CGRP,completely abrogated
Cc1ccc(S(=O)(=O)/C=C/C#N)cc1 [BAY117082],"CGRP-induced CCL3/MIP-1α secretion in presence of inhibitor, mean±s.e.m fold",CCL3/MIP-1α,1.0±0.1 fold
same,effect on CGRP-mediated HIV-1 transfer inhibition,HIV-1,abrogated
